These results are taken from article PMC7926980, “The Antiproliferative and Apoptotic Effect of a Novel Synthesized S-Triazine Dipeptide Series, and Toxicity Screening in Zebrafish Embryos” (Molecules, 2021).

For series [1], the system named is zebrafish embryos. Nature of the series: Zebrafish embryo imaging (morphology, teratogenicity). The series is classed as in vivo. To be noted: 10 µM, embryos at 48 hpf. An excerpt: The treated embryos had cardiac edema, craniofacial defects, tail lesions, and a delay in embryonic development. These observations are consistent with the findings in the literature.
A Zeiss Observer D1 inverted microscope using Zeiss ZEN software was used to capture the images of the live zebrafish embryos.
Figure 6 Representative images of the zebrafish embryos 48 hpf (A) control or (B) treated.

A further series has as its system MCF-7 cells. Nature of the series: MTT cell viability assay, MCF-7. Particulars: Homo sapiens, MCF7, 72 h, 72 h treatment. The series is classed as cell-based, human. The protocol: (§1) The antiproliferative activity of the synthesized compounds was evaluated by the 3-(4,5-dimethylthiazol-2-yl)-2,5-diphenyl tetrazolium bromide (MTT) cell viability assay. Two types of breast cancer cell lines—namely MCF-7, which has estrogen and progesterone receptors, and MDA-MB-231, which is triple negative—were used, in addition to a colon cancer cell line (HCT-116).
(§2) The target products 3a–o were evaluated for their antiproliferative activity using the MTT viability assay of the MCF-7, MDA-MB-231 and HCT-116 cell lines (in triplicate) on at least three independent occasions for the determination of the reported mean values.
(§3) The three human tumor cell lines MCF-7, MDA-MB-231 and HCT-116 were cultured in Dulbecco’s Modified Eagle’s Medium (DMEM) with 10% fetal bovine serum, 2 mM L-glutamine and 100 µg/mL penicillin/streptomycin. The cells were maintained at 37 °C in 5% CO2 in a humidified incubator. All of the cells were sub-cultured 3 times/week by trypsinization using TrypLE Express (1×).
(§4) In order to calculate the relative IC50 values, the antiproliferative effect of compounds 3a–o was tested in three cancer cell lines (MCF-7, MDA-MB-231, HCT-116) and normal epithelial embryonic kidney cells (HEK-293) using the MTT viability assay. The cells were seeded in 96-well plates at a density of 10 × 10^3 cells/mL, in a total volume of 200 µL per well. In total, 0.1% DMSO was used as a vehicle control. […] The culture medium was then removed, and the cells were washed with phosphate-buffered saline (PBS), and 100 µL MTT was added (for a final concentration of 5 mg/mL MTT). The cells were incubated for 4 h in darkness at 37 °C. Next, 200 µL DMSO was added to each well, and the cells were maintained at room temperature in darkness for 20 min. The absorbance was detected with a microplate reader at 570 nm. The results were expressed as a percentage of viability relative to the vehicle control (100%). The dose-response curves were plotted, and the IC50 values were obtained using Prism software (GraphPad Software, Inc., La Jolla, CA, USA). All of the experiments were repeated in three independent experiments.
For orientation: Formazan colour is commonly taken as a measure of viable cells.

The next series concerns MDA-MB-231 cells. Nature of the series: MTT cell viability assay, MDA-MB-231. To be noted: Homo sapiens, 72 h treatment. It counts as cell-based. The protocol: as §1, §2, §3, §4
The next series concerns HCT-116 cells. Description: MTT cell viability assay, HCT-116. The series is classed as cell-based. To be noted: Homo sapiens, 72 h treatment. How it is done:
as §1, §2, §3, §4

Series [2] in a line: Zebrafish embryo mortality/toxicity. The series is classed as in vivo. To be noted: wild-type, in vivo; zebrafish embryos, overnight exposure, 0.5 to 1000 µM; mean of three biological replicates ± standard deviation. How it is done:
(§5) The zebrafish embryos were obtained by natural pairwise breeding, and were treated essentially as described previously.
(§6) The compounds were dissolved in dimethylsulfoxide (DMSO) in order to prepare a stock concentration of 10 mM. The embryos treated with 0.10% DMSO (v/v) served as the negative controls.
(§7) The fish were kept following the national and international guidelines for the care and use of laboratory animals. The fertilized eggs were obtained by the natural pairwise breeding of adult fish. The approval of the Ethics Committee for the use and care of laboratory animals was not needed, as zebrafish larvae less than 5 days post fertilization were used.
(§8) A stock solution of 50 mM was prepared by dissolving the compounds in dimethyl sulfoxide (DMSO). At least 30 fertilized eggs were sorted and placed in 60-mm sterile glass Petri dishes. A serial dilution of the compounds was prepared by adding the required amount of the compound directly into 5 mL water, and the zebrafish embryos were then exposed to serial dilutions (0.5 to 1000 µM) of each compound overnight. The number of dead and living embryos were counted after the overnight exposure.

Series [3] deals with zebrafish embryos. Nature of the series: Zebrafish embryo mortality/toxicity. The series is classed as in vivo. To be noted: maximum concentration tested 1 mM, versus DMSO control. The protocol:
as §5, §6, §7, §8

Turning to `CC/C(=C(\c1ccccc1)c1ccc(OCCN(C)C)cc1)c1ccccc1` [Tamoxifen, reference compound], the “teratogenic effect in zebrafish embryos” value with zebrafish embryos [1] was “severe teratogenic effect”.

As to `COC(=O)CNC(=O)CNc1nc(Nc2ccc(OC)cc2)nc(N2CCOCC2)n1` [Compound 3c, Methyl (4-((4-methoxyphenyl)amino)-6-morpholino-1,3,5-triazin-2-yl) glycylglycinate], the values for the IC50 with MCF-7 cells, in the series with MDA-MB-231 cells and with HCT-116 cells were 13.5 ± 1.01 µM, more than 50 µM and more than 50 µM, respectively. In series [2], the LC50 (commonly the concentration lethal to half of the exposed cells or organisms) is more than 1000 µM. In addition, the “toxicity / mortality in zebrafish embryos” value (“toxicity / mortality” for short) in the series with zebrafish embryos [3] is “did not show any toxicity”.

Regarding `COC(=O)CNC(=O)CNc1nc(Nc2ccc(Cl)cc2)nc(N2CCCCC2)n1` [Compound 3i, Methyl (4-((4-chlorophenyl)amino)-6-(piperidin-1-yl)-1,3,5-triazin-2-yl) glycylglycinate], the IC50 (commonly the point on the concentration scale where inhibition reaches its midpoint) was determined as 8.37 ± 0.77 µM with MCF-7 cells, 22.3 ± 1.87 µM in the series on MDA-MB-231 cells and 18.5 ± 1.45 µM in the series with HCT-116 cells. In series [2], this compound displayed a median lethal concentration (LC50) of 6.22 ± 0.39 µM.

`COC(=O)CNC(=O)CNc1nc(Nc2ccccc2)nc(N2CCCCC2)n1` [Compound 3h, Methyl (4-(phenylamino)-6-(piperidin-1-yl)-1,3,5-triazin-2-yl) glycylglycinate]: the IC50 is 19.64 ± 0.08 µM with MCF-7 cells, more than 50 µM with MDA-MB-231 cells and 15.2 ± 2.04 µM with HCT-116 cells. In series [2], the LC50 came to 10.1 ± 0.43 µM.

For the compound `COC(=O)C(NC(=O)CNc1nc(Nc2ccc(Cl)cc2)nc(N2CCOCC2)n1)C(C)C` (stereo not drawn) [Compound 3g, Methyl (4-((4-chlorophenyl)amino)-6-morpholino-1,3,5-triazin-2-yl) glycylvalinate], the IC50 with MCF-7 cells stood at 13.2 ± 0.6 µM; in the series on MDA-MB-231 cells, 24.1 ± 2.61 µM; with HCT-116 cells, 12.2 ± 1.74 µM. Also, the LC50 in series [2] was 132.1 ± 0.86 µM.

Turning to `COC(=O)CNC(=O)CNc1nc(Nc2ccc(OC)cc2)nc(N2CCCCC2)n1` [Compound 3j, Methyl (4-((4-methoxyphenyl)amino)-6-(piperidin-1-yl)-1,3,5-triazin-2-yl) glycylglycinate], the figures for the half-inhibitory concentration (IC50) in the series with MCF-7 cells, with MDA-MB-231 cells and with HCT-116 cells were 25.3 ± 2.75 µM, more than 50 µM and 23.4 ± 3.43 µM, respectively. The compound further showed an LC50 in series [2] of 80.15 ± 0.59 µM.

On to `COC(=O)C(C)NC(=O)CNc1nc(Nc2ccc(OC)cc2)nc(N2CCOCC2)n1` (stereo not drawn) [Compound 3f, Methyl (4-((4-methoxyphenyl)amino)-6-morpholino-1,3,5-triazin-2-yl) glycylalaninate], for which the IC50 with MCF-7 cells is 8.02 ± 0.5 µM; in the series on MDA-MB-231 cells, 28.1 ± 1.07 µM; in the series with HCT-116 cells, more than 50 µM. This compound also yielded an LC50 in series [2] of 28.4 ± 1.18 µM.

As for `COC(=O)C(C)NC(=O)CNc1nc(Nc2ccccc2)nc(N2CCOCC2)n1` (stereo not drawn) [Compound 3d, Methyl (4-morpholino-6-(phenylamino)-1,3,5-triazin-2-yl) glycylalaninate], the figures for the IC50 in the series with MCF-7 cells, in the series with MDA-MB-231 cells and in the series with HCT-116 cells were 3.57 ± 0.81 µM, 16.2 ± 0.63 µM and more than 50 µM, respectively. Moreover, in series [2], the LC50 was more than 1000 µM. Moreover, the “toxicity / mortality” value in the series on zebrafish embryos [3] is listed as “did not show any toxicity”.

`COC(=O)C(NC(=O)CCNc1nc(Nc2ccc(Cl)cc2)nc(N2CCCCC2)n1)C(C)C` (stereo not drawn) [Compound 3o, Methyl (3-((4-((4-chlorophenyl)amino)-6-(piperidin-1-yl)-1,3,5-triazin-2-yl)amino)propanoyl) valinate]: the IC50 in the series on MCF-7 cells was found to be 4.64 ± 1.58 µM; with MDA-MB-231 cells, 15.7 ± 2.21 µM; in the series with HCT-116 cells it was 18.9 ± 2.82 µM. This compound also returned a 50% lethal concentration (LC50) in series [2] of 1.97 ± 0.27 µM.

For `COC(=O)CNC(=O)CNc1nc(Nc2ccc(Cl)cc2)nc(N2CCOCC2)n1` [Compound 3b, Methyl (4-((4-chlorophenyl)amino)-6-morpholino-1,3,5-triazin-2-yl) glycylglycinate], the IC50 in the series on MCF-7 cells was 6.18 ± 0.46 µM; in the series with MDA-MB-231 cells, more than 50 µM; in the series with HCT-116 cells, more than 50 µM. In series [2], this compound showed an LC50 of more than 1000 µM. In addition, the “toxicity / mortality” value in the series with zebrafish embryos [3] is on record as “did not show any toxicity”.

For `COC(=O)C(NC(=O)CCNc1nc(Nc2ccc(Cl)cc2)nc(N2CCOCC2)n1)C(C)C` (stereo not drawn) [Compound 3n, Methyl (3-((4-((4-chlorophenyl)amino)-6-morpholino-1,3,5-triazin-2-yl)amino)propanoyl) valinate], the results for the half-maximal inhibitory concentration (IC50) with MCF-7 cells, in the series with MDA-MB-231 cells and in the series with HCT-116 cells were 2.35 ± 1.06 µM, 8.48 ± 1.71 µM and 14.4 ± 1.37 µM, respectively. In addition, the LC50 in series [2] stood at 5.84 ± 1.09 µM.

With `COC(=O)CNC(=O)CCNc1nc(Nc2ccc(Cl)cc2)nc(N2CCOCC2)n1` [Compound 3m, Methyl (3-((4-((4-chlorophenyl)amino)-6-morpholino-1,3,5-triazin-2-yl)amino)propanoyl) glycinate], the IC50 with MCF-7 cells was 19.7 ± 1.48 µM; with MDA-MB-231 cells, 26.7 ± 1.32 µM; in the series with HCT-116 cells, more than 50 µM. This compound also registered a 50% lethal concentration (LC50) in series [2] of 5.58 ± 0.95 µM.

Turning to `COC(=O)C(C)NC(=O)CNc1nc(Nc2ccccc2)nc(N2CCCCC2)n1` (stereo not drawn) [Compound 3k, Methyl (4-(phenylamino)-6-(piperidin-1-yl)-1,3,5-triazin-2-yl) glycylalaninate], the IC50 was 15.3 ± 2.49 µM with MCF-7 cells, 13.3 ± 1.12 µM in the series with MDA-MB-231 cells and more than 50 µM in the series with HCT-116 cells. The same compound registered an LC50 in series [2] of 5.98 ± 0.53 µM.

Turning to `COC(=O)C(C)NC(=O)CNc1nc(Nc2ccc(Cl)cc2)nc(N2CCOCC2)n1` (stereo not drawn) [Compound 3e, Methyl (4-((4-chlorophenyl)amino)-6-morpholino-1,3,5-triazin-2-yl) glycylalaninate], the figures for the IC50 in the series on MCF-7 cells, in the series with MDA-MB-231 cells and in the series with HCT-116 cells were 4.35 ± 2.86 µM, 8.2 ± 1.68 µM and more than 50 µM, respectively. For the same compound, the LC50 in series [2] was 2.37 ± 0.27 µM.

On to `COC(=O)C(C)NC(=O)CNc1nc(Nc2ccc(Cl)cc2)nc(N2CCCCC2)n1` (stereo not drawn) [Compound 3l, Methyl (4-((4-chlorophenyl)amino)-6-(piperidin-1-yl)-1,3,5-triazin-2-yl) glycylalaninate], for which the half-maximal inhibitory concentration (IC50) turned out to be 1.46 ± 0.69 µM in the series with MCF-7 cells, 8.31 ± 0.69 µM in the series on MDA-MB-231 cells and 7.06 ± 0.27 µM in the series with HCT-116 cells. Besides, in series [2], the LC50 was determined as 4.25 ± 0.38 µM.
